Measurements from ChEMBL document CHEMBL1938278, “Protective effect of ginseng sapogenins against 2,2'-azobis (1-aminopropane) dihydrochloride (AAPH)-induced LLC-PK₁ cell damage” (2012).

What was measured:
Assay type in all cases: functional
Conditions in all cases: Sus scrofa, LLC-PK1, 24 h; read-out: Activity
LLC-PK1 [1] = assay: Renoprotective activity against AAPH-induced oxidative damage in pig LLC-PK1 cells assessed as cell viability at 1 ug/ml after 24 hrs by MTT assay relative to control
LLC-PK1 [2] = assay: Renoprotective activity against AAPH-induced oxidative damage in pig LLC-PK1 cells assessed as cell viability at 10 ug/ml after 24 hrs by MTT assay relative to control
LLC-PK1 [3] = assay: Renoprotective activity against AAPH-induced oxidative damage in pig LLC-PK1 cells assessed as cell viability at 5 ug/ml after 24 hrs by MTT assay relative to control

Row | Compound | viability at 1 µg/mL (LLC-PK1 [1]) [%] | viability at 10 µg/mL (LLC-PK1 [2]) [%] | viability at 5 µg/mL (LLC-PK1 [3]) [%]
1 | C=C(CCC=C(C)C)[C@H]1CC[C@]2(C)[C@@H]1[C@H](O)C[C@@H]1[C@@]3(C)CC[C@H](O)C(C)(C)[C@@H]3CC[C@]12C | 61.8 | 85.5 | 69.9
2 | C=C(CCC=C(C)C)[C@H]1CC[C@]2(C)[C@@H]1[C@H](O)C[C@@H]1[C@@]3(C)CC[C@H](O)C(C)(C)[C@@H]3[C@@H](O)C[C@]12C | 76.9 | 101 | 94.4
3 | CC(C)=CC/C=C(\C)[C@H]1CC[C@]2(C)[C@@H]1[C@H](O)C[C@@H]1[C@@]3(C)CC[C@H](O)C(C)(C)[C@@H]3CC[C@]12C | 60.7 | 64.6 | 63.7
4 | CC(C)=CC/C=C(\C)[C@H]1CC[C@]2(C)[C@@H]1[C@H](O)C[C@@H]1[C@@]3(C)CC[C@H](O)C(C)(C)[C@@H]3[C@@H](O)C[C@]12C | 61.5 | 63.3 | 63.3
5 | CC(C)=CCC[C@](C)(O)[C@H]1CC[C@]2(C)[C@@H]1[C@H](O)C[C@@H]1[C@@]3(C)CC[C@H](O)C(C)(C)[C@@H]3[C@@H](O)C[C@]12C | 61.1 | 85.7 | 73.3
6 | CC(C)=CCC[C@](C)(O)[C@H]1CC[C@]2(C)[C@@H]1[C@H](O)C[C@@H]1[C@@]3(C)CC[C@H](O)C(C)(C)[C@@H]3CC[C@]12C | 62.2 | 62.6 | 72.6
